Holding throughout (assay): radiometric filter-binding kinase assay, Kinaseprofiler
In experiment [1] the target is FGFR3 (human) (UniProt P22607).
Experiment [2] has as its target MERTK (human) (UniProt Q12866).
The target in experiment [3] is FES (human) (UniProt P07332).
The target of experiment [4] is FLT4 (human) (UniProt P35916).

The structures appear in SMILES notation.

In general, IC50 refers to the concentration that inhibits the measured activity by half.

FLT4 (human), sequence (P35916 whole entry, looked up): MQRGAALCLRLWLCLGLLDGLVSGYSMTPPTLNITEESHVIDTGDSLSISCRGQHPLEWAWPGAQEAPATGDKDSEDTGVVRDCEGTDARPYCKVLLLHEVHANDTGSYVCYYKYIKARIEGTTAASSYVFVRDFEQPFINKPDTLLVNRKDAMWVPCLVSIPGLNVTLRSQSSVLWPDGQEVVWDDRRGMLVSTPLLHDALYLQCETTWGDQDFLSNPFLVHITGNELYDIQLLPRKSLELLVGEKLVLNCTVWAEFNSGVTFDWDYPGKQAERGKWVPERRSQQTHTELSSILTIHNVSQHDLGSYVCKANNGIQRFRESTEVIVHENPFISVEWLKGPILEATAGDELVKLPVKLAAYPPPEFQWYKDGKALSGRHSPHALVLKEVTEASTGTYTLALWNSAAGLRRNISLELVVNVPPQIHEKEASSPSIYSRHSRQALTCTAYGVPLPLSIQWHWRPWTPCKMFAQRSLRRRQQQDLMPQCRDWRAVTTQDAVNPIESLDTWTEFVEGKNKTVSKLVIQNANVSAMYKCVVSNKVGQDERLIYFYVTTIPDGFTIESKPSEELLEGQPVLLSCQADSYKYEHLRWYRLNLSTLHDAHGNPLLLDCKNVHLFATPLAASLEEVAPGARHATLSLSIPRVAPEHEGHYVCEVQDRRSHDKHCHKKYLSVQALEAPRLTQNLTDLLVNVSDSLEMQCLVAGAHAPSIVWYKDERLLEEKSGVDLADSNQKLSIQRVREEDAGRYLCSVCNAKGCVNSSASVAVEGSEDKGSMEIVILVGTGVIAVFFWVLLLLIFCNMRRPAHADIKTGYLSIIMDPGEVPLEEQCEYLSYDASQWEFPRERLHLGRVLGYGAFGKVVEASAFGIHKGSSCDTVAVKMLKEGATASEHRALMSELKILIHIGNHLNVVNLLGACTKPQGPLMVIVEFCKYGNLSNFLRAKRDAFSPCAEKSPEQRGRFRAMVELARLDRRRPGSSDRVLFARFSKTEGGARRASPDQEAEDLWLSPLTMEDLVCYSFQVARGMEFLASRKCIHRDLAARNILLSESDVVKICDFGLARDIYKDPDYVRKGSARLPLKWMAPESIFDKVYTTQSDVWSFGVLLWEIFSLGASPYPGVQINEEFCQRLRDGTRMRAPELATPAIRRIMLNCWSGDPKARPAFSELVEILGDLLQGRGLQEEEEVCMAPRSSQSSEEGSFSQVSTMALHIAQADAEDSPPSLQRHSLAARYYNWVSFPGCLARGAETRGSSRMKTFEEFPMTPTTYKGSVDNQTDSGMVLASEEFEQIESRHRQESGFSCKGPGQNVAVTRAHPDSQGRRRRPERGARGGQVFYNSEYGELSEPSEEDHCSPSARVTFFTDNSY
FGFR3 (human), sequence (P22607 whole entry, looked up): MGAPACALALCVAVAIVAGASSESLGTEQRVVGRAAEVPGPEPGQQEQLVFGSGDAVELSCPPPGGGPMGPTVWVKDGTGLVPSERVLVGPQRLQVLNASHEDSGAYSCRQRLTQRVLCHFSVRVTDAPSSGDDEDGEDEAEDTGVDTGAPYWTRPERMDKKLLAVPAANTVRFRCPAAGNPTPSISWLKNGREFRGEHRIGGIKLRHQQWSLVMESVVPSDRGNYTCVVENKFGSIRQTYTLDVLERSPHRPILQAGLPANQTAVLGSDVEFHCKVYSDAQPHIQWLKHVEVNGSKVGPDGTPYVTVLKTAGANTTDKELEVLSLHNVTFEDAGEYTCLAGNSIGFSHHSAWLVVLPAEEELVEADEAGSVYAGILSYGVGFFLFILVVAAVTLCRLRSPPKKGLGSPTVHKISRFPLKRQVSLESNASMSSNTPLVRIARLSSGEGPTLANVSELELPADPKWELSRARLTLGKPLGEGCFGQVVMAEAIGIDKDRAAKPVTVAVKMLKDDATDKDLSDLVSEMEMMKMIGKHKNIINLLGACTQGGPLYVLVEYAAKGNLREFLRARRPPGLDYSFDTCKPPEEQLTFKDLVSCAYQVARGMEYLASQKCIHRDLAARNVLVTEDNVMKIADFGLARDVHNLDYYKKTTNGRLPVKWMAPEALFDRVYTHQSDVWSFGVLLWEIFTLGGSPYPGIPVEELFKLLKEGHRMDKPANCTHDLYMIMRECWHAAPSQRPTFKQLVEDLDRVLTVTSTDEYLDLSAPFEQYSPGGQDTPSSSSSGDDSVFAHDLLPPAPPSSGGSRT
FES (human), sequence (P07332 whole entry, looked up): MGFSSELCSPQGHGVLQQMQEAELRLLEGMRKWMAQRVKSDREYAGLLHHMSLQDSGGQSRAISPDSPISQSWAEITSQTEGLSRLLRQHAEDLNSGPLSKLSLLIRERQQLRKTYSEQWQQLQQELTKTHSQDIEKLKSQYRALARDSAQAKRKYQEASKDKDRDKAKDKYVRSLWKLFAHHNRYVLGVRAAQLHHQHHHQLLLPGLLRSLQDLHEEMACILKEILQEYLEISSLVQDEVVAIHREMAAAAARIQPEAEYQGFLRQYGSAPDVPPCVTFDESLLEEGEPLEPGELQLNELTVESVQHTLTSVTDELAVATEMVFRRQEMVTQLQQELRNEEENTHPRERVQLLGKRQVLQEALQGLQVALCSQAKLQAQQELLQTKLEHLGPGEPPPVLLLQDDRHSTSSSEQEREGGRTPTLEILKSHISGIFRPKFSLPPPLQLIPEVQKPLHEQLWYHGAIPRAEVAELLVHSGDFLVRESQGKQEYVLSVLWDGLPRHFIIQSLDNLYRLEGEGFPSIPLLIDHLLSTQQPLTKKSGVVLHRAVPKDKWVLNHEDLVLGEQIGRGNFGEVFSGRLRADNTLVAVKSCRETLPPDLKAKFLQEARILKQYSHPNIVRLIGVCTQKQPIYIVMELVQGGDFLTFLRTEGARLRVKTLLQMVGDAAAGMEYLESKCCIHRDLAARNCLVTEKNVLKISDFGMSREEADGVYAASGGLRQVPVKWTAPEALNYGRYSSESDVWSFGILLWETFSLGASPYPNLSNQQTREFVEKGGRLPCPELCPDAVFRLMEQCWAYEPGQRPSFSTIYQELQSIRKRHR
MERTK (human), sequence (Q12866 whole entry, looked up): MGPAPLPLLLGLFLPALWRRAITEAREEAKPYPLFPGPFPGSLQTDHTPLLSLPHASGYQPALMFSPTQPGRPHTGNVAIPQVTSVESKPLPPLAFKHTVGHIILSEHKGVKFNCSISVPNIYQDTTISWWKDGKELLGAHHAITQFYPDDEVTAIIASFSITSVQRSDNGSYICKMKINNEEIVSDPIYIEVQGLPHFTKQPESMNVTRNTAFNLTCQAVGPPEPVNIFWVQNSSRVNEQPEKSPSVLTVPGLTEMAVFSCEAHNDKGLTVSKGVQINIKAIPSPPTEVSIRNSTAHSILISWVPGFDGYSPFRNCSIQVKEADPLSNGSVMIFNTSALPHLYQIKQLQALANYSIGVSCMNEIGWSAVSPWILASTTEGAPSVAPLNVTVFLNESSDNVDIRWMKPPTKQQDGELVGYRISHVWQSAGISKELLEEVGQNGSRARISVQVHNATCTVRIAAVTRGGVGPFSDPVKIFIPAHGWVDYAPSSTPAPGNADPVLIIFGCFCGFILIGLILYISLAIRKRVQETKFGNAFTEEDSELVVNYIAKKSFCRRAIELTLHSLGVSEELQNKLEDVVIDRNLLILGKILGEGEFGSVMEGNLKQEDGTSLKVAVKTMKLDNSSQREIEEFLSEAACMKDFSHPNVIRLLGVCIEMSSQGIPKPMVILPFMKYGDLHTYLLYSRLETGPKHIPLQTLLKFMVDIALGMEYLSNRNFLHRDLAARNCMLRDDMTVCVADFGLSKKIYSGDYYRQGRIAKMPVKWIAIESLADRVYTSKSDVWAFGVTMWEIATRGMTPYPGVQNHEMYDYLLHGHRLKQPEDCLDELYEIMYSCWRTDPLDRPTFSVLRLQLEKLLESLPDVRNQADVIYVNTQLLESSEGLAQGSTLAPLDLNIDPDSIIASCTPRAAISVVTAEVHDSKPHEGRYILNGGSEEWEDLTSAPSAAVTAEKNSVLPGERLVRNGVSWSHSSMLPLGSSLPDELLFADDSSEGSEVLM

Consider `Cn1cc(-c2cnc3ccc4ccc(CS(=O)(=O)NCc5ccccn5)cc4c(=O)c3c2)cn1`, for which the IC50 in experiment [1] was 1000 nM; in experiment [2] it was 880 nM; in experiment [3], over 10 µM; in experiment [4], 920 nM.

The record behind these values is the kinase profiling compilation of Christmann-Franck et al. (2016).
